Drawing on ChEMBL document CHEMBL1140395, “Diamino-C,N-diarylpyridine positional isomers as inhibitors of lysophosphatidic acid acyltransferase-beta” (Bioorg Med Chem Lett, 2005), this text covers IC50 for four compounds.

Molecules are shown by their SMILES. Several values for one entry are separate records, joined by “and”; a condition that tells them apart may be missing. Equal entries are not always repeated.

For the test, the target named is T1, 1-acyl-sn-glycerol-3-phosphate acyltransferase beta (Homo sapiens, UniProt O15120).
T1 sequence (O15120 whole entry): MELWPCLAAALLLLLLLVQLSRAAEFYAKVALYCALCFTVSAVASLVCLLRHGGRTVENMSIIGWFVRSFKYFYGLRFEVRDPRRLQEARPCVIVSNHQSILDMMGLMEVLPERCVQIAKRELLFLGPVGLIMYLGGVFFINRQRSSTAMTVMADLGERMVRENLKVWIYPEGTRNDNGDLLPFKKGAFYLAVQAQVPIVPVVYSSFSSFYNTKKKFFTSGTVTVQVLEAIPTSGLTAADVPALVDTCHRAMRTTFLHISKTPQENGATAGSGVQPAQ
The test is described as follows: Inhibitory activity against Lysophosphatidic acid acyltransferase-beta enzyme over-expressed in Sf9 insect cell membrane.
As for `CCOc1ccc(Cl)cc1-c1nc(N)nc(Nc2ccc(Cl)cc2)n1`, the half-inhibitory concentration (IC50) (commonly the concentration at which inhibition is half-maximal) worked out at 260 nM. In turn, `COc1ccc(Cl)cc1-c1cc(Nc2ccc(C)cc2)cc(N)n1` gave an IC50 of more than 40000 nM. On to `COc1ccc(Cl)cc1-c1nc(N)nc(Nc2ccc(Cl)cc2)n1`, for which the IC50 was 70 nM and 45 nM. To `COc1ccc(Cl)cc1-c1cc(N)nc(Nc2ccc(Cl)cc2)n1` belongs 2050 nM.
